Measurements from EP0603240B1, “SAFENING HERBICIDAL PYRAZOLYLSULFONYLUREAS” (priority 1991, dated 1993).

Tests used:
Assay type in all cases: in vivo
corn [1] = assay: Example 7, Procedure II: Herbicide No. 1 + metolachlor (No. 12) with antidotes
In short: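 Herbicide plus antidote, applied in acetone, mixed into silt loam top soil used to cover corn seed beds, with untreated and herbicide-only controls. After incorporation, containers got overhead irrigation equal to 0.6 cm rainfall, then sub-irrigation in greenhouse. Percent injury scored; antidote efficacy is injury difference; duplicate averages.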

[2] = system: barnyardgrass (Echinochloa crusgalli); assay: as above
In short: (§1)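 Herbicide and antidote in acetone were mixed into silt loam soil used to cover seeded beds, followed by 0.6 cm overhead irrigation, then sub-irrigation in the greenhouse. Percent injury was scored against herbicide-alone and untreated controls, averaged over duplicates. Herbicide No. 1 was combined with metolachlor.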

[3] = system: velvetleaf (Abutilon theophrasti); assay: as above
In short: as §1

corn [4] = assay: Example 18, Procedure II: Herbicide No. 1 + ERADICANE (EPTC + R-25788) with auxiliary antidotes
In short: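 Corn seeded in silt loam and covered with soil into which herbicide and antidote, in acetone, were mixed; EPTC given as ERADICANE (with R-25788) at 8.96 kg/ha. Overhead irrigation equal to 0.6 cm rainfall, then greenhouse sub-irrigation. Percent injury scored; antidote efficacy as injury difference with versus without antidote.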

[5] = system: barnyardgrass (Echinochloa crusgalli); assay: as above
Protocol: (§2) Containers were filled and compacted with a fumigated silt loam top soil to a depth of about 1.3 cm from the top of the container. A first container was designated as an untreated control, a second container was designated as a herbicide control, and a third container was designated as a herbicide + antidote test container. Each of the containers was seeded with a crop species. A measured amount of herbicide dispersed or dissolved in acetone was applied to a measured quantity of soil. To this same quantity of soil treated with herbicide, there was added a measured amount of antidote dispersed or dissolved in acetone. The quantity of soil treated with the herbicide and antidote was thoroughly mixed to incorporate the herbicide and antidote in the soil uniformly. The seed bed in the third container of soil was covered with the soil treated with the herbicide and antidote and the container was leveled. For each test series, the seed beds of the first and second containers were likewise covered by soil layers. the cover layer of the first container was not treated with herbicide or antidote.
(§3) The containers were then placed on a bench in a greenhouse and sub-irrigated as required for the duration of the test. […] Plant response is measured in terms of percent injury. Antidote efficacy is indicated as the difference in plant injury by the herbicide(s) without the antidote and with the antidote.
(§4) This procedure is the same as Procedure I, but modified in the manner that after incorporation of the chemicals (herbicide and antidote) the containers with the covered seedbed were treated with an initial overhead irrigation equivalent to 0.6 cm rainfall, then subsequently sub-irrigated as required on greenhouse benches.
(§5) In the series of greenhouse tests described below, for routine screening purposes the herbicide/antidote compositions were tested in crop/weed combinations involving corn as the crop and either or both of the weeds barnyardgrass (Echinochloa crusgalli), a monocotyledonous weed, and velvetleaf (Abutilon theophrasti), a dicotyledonous weed. In the tables below, these weeds are indicated by the symbols "BYG" and "VL", respectively.
(§6) In the test reported in this example, the herbicidal composition was similar to that used in Example 16 in that Herbicide No. 1 was combined with EPTC (Herbicide No. 4) as a co-herbicide and the antidotes included Nos. 1, 2, 7, 13 and 15. However, in this test the EPTC was introduced as a formulation of ERADICANE (EPTC + the antidote R-25788, i.e., Antidote No. 1) at an application rate of 8.96 kg/ha. Thus, in this test two antidotes were present, viz. R-25788 and one of the auxilliary antidotes, No. 2, 13 and 15.
(§7) Test procedures were those of Procedure II above.

[6] = system: velvetleaf (Abutilon theophrasti); assay: as above
Protocol: as §2, §3, §4, §5, §6, §7

[7] = system: barnyardgrass (Echinochloa crusgalli); assay: Example 19, Procedure II: Herbicide No. 1 + ERADICANE EXTRA with added antidotes
Protocol: as §2, §3, §4, §5, §6
(§8) The test reported in this example was performed in the same manner and with the same antidotes used in Example 18, the only difference being the substitution of the commercial herbicidal product ERADICANE® EXTRA for ERADICANE®. ERADICANE EXTRA is a formulation containing both an antidote, i.e., R-29148 (Antidote No. 5 herein), and an extender, dietholate.

[8] = system: velvetleaf (Abutilon theophrasti); assay: as above
Protocol: as §2, §3, §4, §5, §6, §8

[9] = system: barnyardgrass (Echinochloa crusgalli); assay: Example 21, Procedure II: Herbicide No. 1 + SUTAN PLUS (butylate + antidote) with antidotes
Protocol: as §2, §3, §4, §5
(§9) In this example, tests were conducted as in the preceding Examples 18-20, except here the co-herbicidal component was SUTAN® PLUS, a commercial product comprising as the active herbicidal ingredient the compound butylate (Herbicide No. 10) and an antidote […] (Antidote No. 1). Again, the antidotal compounds herein were Nos. 1, 2, 7, 13 and 15. Procedure II was used.

[10] = system: velvetleaf (Abutilon theophrasti); assay: as above
Protocol: as §2, §3, §4, §5, §9

[11] = system: barnyardgrass (Echinochloa crusgalli); assay: Example 22: retest of Example 21 at reduced greenhouse temperatures; settings: Table 22
Protocol: as §2, §3, §4, §5, §9
(§10) The experiments in this example were designed as a retest of those described in Example 21 in view of the uncharacteristically poor corn safety and weed control, believed to have resulted from unseasonably high temperatures in the greenhouse. Accordingly, temperatures were reduced for these tests.

[12] = system: velvetleaf (Abutilon theophrasti); assay: as above; settings: Table 22
Protocol: as §2, §3, §4, §5, §9, §10

[13] = Herbicide No.1 0.14 + No.12 3.36 kg/ha + antidote 2.24 kg/ha
[14] = Herbicide No.1 0.14 + No.12 3.36 kg/ha + antidote 8.96 kg/ha
[15] = Herbicide No.1 0.56 + No.12 3.36 kg/ha + antidote 2.24 kg/ha
[16] = Herbicide No.1 0.56 + No.12 3.36 kg/ha + antidote 8.96 kg/ha
[17] = Herbicide No.1 0.56 kg/ha + ERADICANE 8.96 kg/ha, antidote 2.24 kg/ha
[18] = Herbicide No.1 0.56 kg/ha + ERADICANE 8.96 kg/ha, antidote 8.96 kg/ha
[19] = Herbicide No.1 1.12 kg/ha + ERADICANE 8.96 kg/ha, antidote 2.24 kg/ha
[20] = Herbicide No.1 1.12 kg/ha + ERADICANE 8.96 kg/ha, antidote 8.96 kg/ha
[21] = Herbicide No.1 0.56 kg/ha + ERADICANE EXTRA 8.96 kg/ha, antidote 2.24 kg/ha
[22] = Herbicide No.1 0.56 kg/ha + ERADICANE EXTRA 8.96 kg/ha, antidote 8.96 kg/ha
[23] = Herbicide No.1 1.12 kg/ha + ERADICANE EXTRA 8.96 kg/ha, antidote 2.24 kg/ha
[24] = Herbicide No.1 1.12 kg/ha + ERADICANE EXTRA 8.96 kg/ha, antidote 8.96 kg/ha
[25] = Herbicide No.1 0.56 kg/ha + SUTAN + 8.96 kg/ha, antidote 2.24 kg/ha
[26] = Herbicide No.1 0.56 kg/ha + SUTAN + 8.96 kg/ha, antidote 8.96 kg/ha
[27] = Herbicide No.1 1.12 kg/ha + SUTAN + 8.96 kg/ha, antidote 2.24 kg/ha
[28] = Herbicide No.1 1.12 kg/ha + SUTAN + 8.96 kg/ha, antidote 8.96 kg/ha
[29] = Herbicide No.1 0.56 Kg/ha + SUTAN + 8.96 Kg/ha + antidote 2.24 Kg/ha
[30] = Herbicide No.1 0.56 Kg/ha + SUTAN + 8.96 Kg/ha + antidote 8.96 Kg/ha
[31] = Herbicide No.1 1.12 Kg/ha + SUTAN + 8.96 Kg/ha + antidote 2.24 Kg/ha
[32] = Herbicide No.1 1.12 Kg/ha + SUTAN + 8.96 Kg/ha + antidote 8.96 Kg/ha

## O=C1OC(=O)c2cccc3cccc1c23 [compound 2]
Corn [1]; [13]
  % Injury Corn: 0%
Corn [1]; [14]
  % Injury Corn: 0%
Corn [1]; [15]
  % Injury Corn: 10%
Corn [1]; [16]
  % Injury Corn: 15%
[2]; [13]
  % Injury BYG: 100%
[2]; [14]
  % Injury BYG: 100%
[2]; [15]
  % Injury BYG: 100%
[2]; [16]
  % Injury BYG: 100%
[3]; [13]
  % Injury VL: 75%
[3]; [14]
  % Injury VL: 75%
[3]; [15]
  % Injury VL: 80%
[3]; [16]
  % Injury VL: 85%
Corn [4]; [17]
  % Injury Corn: 15%
Corn [4]; [18]
  % Injury Corn: 25%
Corn [4]; [19]
  % Injury Corn: 20%
Corn [4]; [20]
  % Injury Corn: 20%
[5]; [17]
  % Injury BYG: 93%
[5]; [18]
  % Injury BYG: 85%
[5]; [19]
  % Injury BYG: 85%
[5]; [20]
  % Injury BYG: 95%
[6]; [17]
  % Injury VL: 80%
[6]; [18]
  % Injury VL: 93%
[6]; [19]
  % Injury VL: 70%
[6]; [20]
  % Injury VL: 75%
[7]; [21]
  % Injury BYG: 90%
[7]; [22]
  % Injury BYG: 90%
[7]; [23]
  % Injury BYG: 85%
[7]; [24]
  % Injury BYG: 85%
[8]; [21]
  % Injury VL: 75%
[8]; [22]
  % Injury VL: 75%
[8]; [23]
  % Injury VL: 85%
[8]; [24]
  % Injury VL: 75%
[9]; [25]
  % Injury BYG: 5%
[9]; [26]
  % Injury BYG: 10%
[9]; [27]
  % Injury BYG: 45%
[9]; [28]
  % Injury BYG: 5%
[10]; [25]
  % Injury VL: 55%
[10]; [26]
  % Injury VL: 65%
[10]; [27]
  % Injury VL: 70%
[10]; [28]
  % Injury VL: 70%
[11]; [29]
  % Injury BYG: 80%
[11]; [30]
  % Injury BYG: 90%
[11]; [31]
  % Injury BYG: 85%
[11]; [32]
  % Injury BYG: 90%
[12]; [29]
  % Injury VL: 80%
[12]; [30]
  % Injury VL: 90%
[12]; [31]
  % Injury VL: 93%
[12]; [32]
  % Injury VL: 90%
